The results in this text go back to PubChem BioAssay (NCI).

Some test systems named below: HL-60(TB) leukemia; K-562 leukemia; LOX IMVI melanoma; MALME-3M melanoma; PC-3 prostate; RXF 393 renal; SF-295 CNS; SK-MEL-28 melanoma; SK-OV-3 ovarian; SN12C renal.
Test in all cases: NCI tumour cell line growth inhibition, 48 h

Several values for one entry are separate records, joined by “and”; a condition that tells them apart may be missing. Equal entries are not always repeated.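 Growth conditions: 96-well plates. Treatment: test compound, 48 hours, 5 concentrations. Analysis: linear interpolation between bracketing concentrations; unreached endpoints set to highest concentration. GI50 marks 50% less growth. TGI denotes the concentration required for complete inhibition of growth.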

`CN(N=O)c1ccc(/C=C/c2ccnc3ccccc23)cc1`: the TGI in the assay with HL-60(TB) leukemia, with K-562 leukemia, with LOX IMVI melanoma, in the assay on MALME-3M melanoma, in the assay with PC-3 prostate and in the assay with RXF 393 renal was > 100 µM throughout. Moreover, the TGI in the assay on SF-295 CNS, in the assay on SK-MEL-28 melanoma, in the assay on SK-OV-3 ovarian and with SN12C renal was > 100 µM in each case.
As to `COc1cc(C2c3cc4c(cc3[C@@H](Nc3ccc(F)cc3)C3COC(=O)[C@H]23)OCO4)cc(OC)c1O` (some centres undefined), the GI50 in the assay with HL-60(TB) leukemia was 0.181 µM and 0.631 µM; in the assay on LOX IMVI melanoma, 0.44 µM; with SF-295 CNS, 0.548 µM; with SN12C renal, 0.718 µM. Moreover, the TGI in the assay with HL-60(TB) leukemia was 0.839 µM and 6.02 µM; in the assay with K-562 leukemia it was 43 µM; with LOX IMVI melanoma it was 10.5 µM; in the assay with MALME-3M melanoma, 13.4 µM; in the assay on PC-3 prostate it was 23.4 µM; in the assay on RXF 393 renal, 11.4 µM. The TGI in the assay with SF-295 CNS was 7.26 µM; with SK-MEL-28 melanoma it was 48.3 µM; in the assay on SK-OV-3 ovarian, 21 µM; with SN12C renal it was 9.64 µM.
On to `O=C(NCCN1CCOCC1)c1cc2c(Oc3ccc(NC(=O)C4(C(=O)Nc5ccc(F)cc5)CC4)cc3)ccnc2[nH]1`, for which the GI50 in the assay on HL-60(TB) leukemia was 15.2 µM; in the assay on K-562 leukemia, 4.27 µM; with LOX IMVI melanoma, 2.05 µM; with MALME-3M melanoma, 1.1 µM; with PC-3 prostate, 5.77 µM; in the assay on RXF 393 renal, 1.84 µM. For the same compound, the GI50 is 0.47 µM in the assay with SF-295 CNS, 4.37 µM in the assay with SK-MEL-28 melanoma, 15.1 µM in the assay on SK-OV-3 ovarian and 1.44 µM in the assay with SN12C renal. Besides, the TGI worked out at 47 µM in the assay on HL-60(TB) leukemia; 42.2 µM in the assay with K-562 leukemia; 39.6 µM with LOX IMVI melanoma; 14.4 µM in the assay on MALME-3M melanoma; 64.6 µM in the assay on PC-3 prostate; 19.8 µM in the assay on RXF 393 renal. The TGI is 15.5 µM with SF-295 CNS, 19.4 µM in the assay with SK-MEL-28 melanoma, > 100 µM in the assay with SK-OV-3 ovarian and > 100 µM in the assay on SN12C renal.
Take `Cc1ccc(C)c(N2CCN(c3ccncc3N)CC2)c1`: the GI50 in the assay on HL-60(TB) leukemia is 15.9 µM; in the assay with K-562 leukemia, 8.67 µM; in the assay with LOX IMVI melanoma, 20.6 µM; in the assay on MALME-3M melanoma, 17.6 µM; in the assay with PC-3 prostate it was 14.2 µM; in the assay on RXF 393 renal it was 9.31 µM. Further, the GI50 was 11.1 µM in the assay with SF-295 CNS, 19.6 µM in the assay with SK-MEL-28 melanoma, 21.9 µM in the assay with SK-OV-3 ovarian and 20.9 µM with SN12C renal. In addition, the TGI in the assay on HL-60(TB) leukemia was found to be 54.9 µM; with K-562 leukemia, 57.1 µM; in the assay with LOX IMVI melanoma, 61.1 µM; with MALME-3M melanoma it was 40.7 µM; in the assay with PC-3 prostate, 84.7 µM; in the assay with RXF 393 renal it was 36.4 µM. Besides, the TGI with SF-295 CNS is 38.5 µM; with SK-MEL-28 melanoma, 40.8 µM; with SK-OV-3 ovarian, 73.5 µM; in the assay with SN12C renal, > 100 µM.
With `Nc1nc(SCC#CCCl)c2[nH]cnc2n1`, the GI50 in the assay on HL-60(TB) leukemia is 2.08 µM; with K-562 leukemia, 4.5 µM; in the assay with LOX IMVI melanoma, 2.97 µM; with MALME-3M melanoma it was 4.81 µM; with PC-3 prostate, 14.6 µM; in the assay with RXF 393 renal, 3.05 µM. In addition, the GI50 is 3.65 µM with SF-295 CNS, 11.7 µM with SK-MEL-28 melanoma, 7.56 µM in the assay with SK-OV-3 ovarian and 4.75 µM with SN12C renal. Also, the TGI in the assay on HL-60(TB) leukemia was 6.61 µM; in the assay on K-562 leukemia, 40.5 µM; with LOX IMVI melanoma, 11.8 µM; with MALME-3M melanoma, 24 µM; in the assay on PC-3 prostate, 75.8 µM; with RXF 393 renal, 14.9 µM. In addition, the TGI with SF-295 CNS came to 17.1 µM; in the assay with SK-MEL-28 melanoma it was 27.2 µM; in the assay with SK-OV-3 ovarian, 27.6 µM; in the assay with SN12C renal, 18 µM.
Consider `COc1ccc2c(c1O)[C@@]13CCCC=C1[C@@H](C2)N(C)CC3`, for which the TGI is > 100 µM in the assay on HL-60(TB) leukemia; > 100 µM in the assay on K-562 leukemia; > 100 µM in the assay on LOX IMVI melanoma; 3.35 µM in the assay on MALME-3M melanoma; > 100 µM with PC-3 prostate; > 100 µM with RXF 393 renal. Also, the TGI in the assay with SF-295 CNS, in the assay with SK-MEL-28 melanoma, with SK-OV-3 ovarian and in the assay on SN12C renal was > 100 µM each time.
`CCc1ccc([OH2+])c(C(=O)[O-])c1.CCc1ccc([OH2+])c(C(=O)[O-])c1.CCc1ccc([OH2+])c(C(=O)[O-])c1.CCc1ccc([OH2+])c(C(=O)[O-])c1.[Cu+2].[Cu+2]`: the GI50 with HL-60(TB) leukemia is 2.4 µM; in the assay with K-562 leukemia it was 38.1 µM; in the assay with LOX IMVI melanoma it was > 100 µM; in the assay on MALME-3M melanoma, > 100 µM; with PC-3 prostate it was > 70.5 µM; in the assay with RXF 393 renal it was > 46.8 µM. Also, the GI50 was 50.8 µM with SF-295 CNS, > 100 µM in the assay on SK-MEL-28 melanoma, 23.9 µM with SK-OV-3 ovarian and 98.3 µM in the assay on SN12C renal. Also, the TGI is > 44.4 µM in the assay on HL-60(TB) leukemia; > 73.9 µM in the assay with K-562 leukemia; > 100 µM in the assay with LOX IMVI melanoma; > 100 µM in the assay with MALME-3M melanoma; > 100 µM in the assay on PC-3 prostate; > 94.5 µM in the assay with RXF 393 renal. Besides, the TGI in the assay with SF-295 CNS was > 100 µM; in the assay on SK-MEL-28 melanoma, > 100 µM; in the assay on SK-OV-3 ovarian it was > 68.2 µM; in the assay with SN12C renal, > 100 µM.
For `CC/C(=C/c1ccc(OC)cc1)[N+](=O)[O-]`, the GI50 was 1.89 µM in the assay with HL-60(TB) leukemia; 1.95 µM in the assay on K-562 leukemia; 1.47 µM with LOX IMVI melanoma; 1.78 µM in the assay on MALME-3M melanoma; 1.98 µM in the assay with PC-3 prostate; 1.85 µM in the assay on RXF 393 renal. Moreover, the GI50 in the assay with SF-295 CNS was 11.3 µM; in the assay on SK-MEL-28 melanoma it was 1.68 µM; with SK-OV-3 ovarian it was 14.4 µM; with SN12C renal, 2.28 µM. The TGI is 5.47 µM in the assay with HL-60(TB) leukemia; > 100 µM with K-562 leukemia; 2.98 µM in the assay on LOX IMVI melanoma; 3.77 µM in the assay on MALME-3M melanoma; 3.87 µM in the assay with PC-3 prostate; 3.39 µM in the assay on RXF 393 renal. The TGI in the assay with SF-295 CNS was found to be 23.3 µM; in the assay on SK-MEL-28 melanoma, 3.44 µM; with SK-OV-3 ovarian, 27.5 µM; in the assay on SN12C renal, 5.44 µM.
